The values that follow come from patent US8481284B2, “Process of preparing conjugates of allium organosulfur compounds with amino acids, peptides, and proteins” (Wisconsin Alumni Research Foundation, priority 2009, dated 2013).

Test [1] has as its system quinone reductase (QR) activity in Hepa 1c1c7 cells. Description: QR (quinone reductase) induction in Hepa 1c1c7 cells. It is filed as cell-based. To be noted: for EC (2-fold QR induction) / QR induction at a single dose: Hepa 1c1c7 cells; for EC (2-fold QR induction): read-out: CD values (dose where there was a doubling of QR); for QR induction in the presence of increasing exogenous GSH: 31 μg/ml conjugate, increasing exogenous GSH in medium; for QR induction at a single dose: 31 μg/ml. The protocol:
Specifically, the mixed disulfide conjugates as prepared similar to the pure conjugates of Example 10 or purified from mixtures prepared in Example 11 were used with the Hepa 1c1c7 cell line as disclosed in Prochaska, et al., 1992. Each conjugate was tested over a dose range and increases in quinone reductase (QR) activity was used as a biomarker for phase II enzyme induction, an established mechanism of cancer chemoprotection. […] Results were considered valid as long as cell viability in the assay was >50% as recommended by the established protocol. Typical experimental results are shown for the CySSPe conjugate (FIG. 11), and summary results are provided for all conjugates in terms of relative potency (CD values) for QR induction (Table 8).
(§1) Generally, redox modulation and thiol upregulation is considered a defense mechanism to pathological processes in cells. These mechanisms were analyzed in the mixed disulfide conjugates in both Hepa 1c1c7 and RAW 264.7 macrophage cell lines. Evidence of redox modulation was obtained in terms of 1) attenuation of QR inducing activity with increasing reducing capacity of cells through exogenous GSH addition, 2) increases in cellular glutathione (GSH) and 3) export/enrichment of thiols in the extracellular fluid.

Test [2] has as its system nitric oxide (NO) in lipopolysaccharide-activated macrophages (RAW 264.7). Description: Inhibition of NO evolution in lipopolysaccharide-activated macrophages (RAW 264.7), Griess reagent. It counts as cell-based, murine. The conditions noted are these: Mus musculus, RAW264.7; for IC50: LPS 1 μg/ml, 24 hour incubation; for inhibition at 125 µg/mL: at 125 μg/ml, the highest level tested. The method, then:
Each conjugate was tested over a dose range and the evolution of NO over the 24 hour incubation period was measured as […] by the Griess reagent using established protocols ([…] et al., 1996). The dose where a 50% inhibition of NO evolution occurred (IC50) relative to the control cells without added conjugate was estimated by sigmoidal curve-fitting as a relative measure of anti-inflammatory activity, with lower IC50 values representing greater potency. […] Typical experimental results are shown for the GSSPe conjugate (FIG. 12), and summary results are provided for all conjugates in terms of relative potency (IC50 values) for NO inhibition (Table 9).

A further test deals with RAW 264.7 cells. Briefly: Thiol export (extracellular thiols, DTNB) by macrophages. It counts as cell-based, murine. To be noted: compared with other species or control cells. The method, then:
FIG. 15 depicts the extracellular thiol concentrations of RAW 264.7 cells treated with CySSR and 5,5′-dithio-bis(2-nitrobenzoic acid) (DTNB) as analyzed in Example 31.
as §1
Specifically, CySSR as prepared in Example 11 was added to macrophages. Thiol export by the macrophages was then analyzed. All CySSR species tested at 31 μg/ml induced thiol export by macrophages by as much as 20-35 times level observed for untreated control cells. Thiols were measured by Ellman's reagent (DTNB). […] Cellular exporting of thiols represents another mechanism by which cells respond to oxidative stress by exporting reducing equivalents to restore extracellular redox homeostasis.

For test [3], the system named is intracellular GSH in Hepa 1c1c7 cells. Description: Intracellular GSH content of Hepa 1c1c7 cells after conjugate addition. It is filed as cell-based. The conditions noted are these: over the first 10 hours. The protocol:
Another related consequence of adding the conjugates to the cells was an increase in cellular GSH. This response is considered to be a general antioxidant defense as well as one that provides specific protection to cancer (Kim et al., 2009) and was assessed in the next Example.
Specifically, GSSP was prepared similar to the GSSR conjugates in Example 11 and added to Hepa 1c1c7 cells. The changes in intracellular GSH content was measured after lysis of the cells at pre-determined intervals after addition of the GSSP conjugate.

Setting [4] is: molar equivalent of the μg/ml value.

Like-named read-outs stand apart in the source and are kept apart here.

For the molecule `C/C=C/SSC[C@H](NC(=O)CC[C@H](N)C(=O)O)C(=O)NCC(=O)O` [GSSPe, S-1-propenyl-L-mercaptoglutathione], the values for the EC (2-fold QR induction) in test [1] (cell viability >50%) and in test [1] (setting [4]) were 5.3 µg/mL and 14 µM, respectively. For the same molecule, the figures for the IC50 in test [2] (cell viability ≧80%) and in test [2] (setting [4]) were 4.6 µg/mL and 16 µM, respectively.
For `C=CCSSC[C@@H](N)C(=O)O` [CySSA, S-allyl-L-mercaptocysteine], in test [1], the “QR induction in the presence of increasing exogenous GSH” value is given as “progressively attenuated”. For the same molecule, the “QR induction at a single dose” value in test [1] was “nearly a doubling of QR”. The values for the EC (2-fold QR induction) in test [1] (cell viability >50%) and in test [1] (setting [4]) were 26 µg/mL and 130 µM, respectively. Moreover, the IC50 in test [2] (cell viability ≧80%) stood at 9 µg/mL; in test [2] (setting [4]), 47 µM.
As to `CCSSC[C@H](NC(=O)CC[C@H](N)C(=O)O)C(=O)NCC(=O)O` [GSSE, S-ethyl-L-mercaptoglutathione], the EC (2-fold QR induction) in test [1] (cell viability >50%) came to 72 µg/mL; in test [1] (setting [4]), 200 µM. The molecule also showed an inhibition at 125 µg/mL in test [2] of 25%.
As to `C=CCSSC[C@H](NC(=O)CC[C@H](N)C(=O)O)C(=O)NCC(=O)O` [GSSA, S-2-propenyl-L-mercaptoglutathione], the “QR induction in the presence of increasing exogenous GSH” value in test [1] is “progressively attenuated”. For the same molecule, the “QR induction at a single dose” value in test [1] is reported as “nearly a doubling of QR”. In addition, the EC (2-fold QR induction) in test [1] (cell viability >50%) is 33 µg/mL; in test [1] (setting [4]), 87 µM. The IC50 in test [2] (cell viability ≧80%) was 87 µg/mL; in test [2] (setting [4]), 230 µM.
`CCSSC[C@@H](N)C(=O)O` [CySSE, S-ethyl-L-mercaptocysteine]: the EC (2-fold QR induction) in test [1] (cell viability >50%) was found to be 76 µg/mL; in test [1] (setting [4]), 420 µM. The IC50 was found to be 102 µg/mL in test [2] (cell viability ≧80%) and 560 µM in test [2] (setting [4]).
For the molecule `CCCSSC[C@@H](N)C(=O)O` [CySSP, S-propyl-L-mercaptocysteine], the EC (2-fold QR induction) was determined as 92 µg/mL in test [1] (cell viability >50%) and 470 µM in test [1] (setting [4]). For the same molecule, the IC50 amounted to 63 µg/mL in test [2] (cell viability ≧80%) and 320 µM in test [2] (setting [4]).
Regarding `CSSC[C@H](NC(=O)CC[C@H](N)C(=O)O)C(=O)NCC(=O)O` [GSSM, S-methlyl-L-mercaptoglutathione], the values for the EC (2-fold QR induction) in test [1] (cell viability >50%) and in test [1] (setting [4]) were 87 µg/mL and 250 µM, respectively. The same molecule yielded an inhibition at 125 µg/mL in test [2] of 26%.
On to `CSSC[C@@H](N)C(=O)O` [CySSM, S-methyl-L-mercaptocysteine], for which the EC (2-fold QR induction) came out at 89 µg/mL in test [1] (cell viability >50%) and 530 µM in test [1] (setting [4]). In addition, the IC50 in test [2] (cell viability ≧80%) was found to be 48 µg/mL; in test [2] (setting [4]) it was 290 µM.
For the molecule `C/C=C/SSC[C@@H](N)C(=O)O` [CySSPe, S-1-propenyl-L-mercaptocysteine], the EC (2-fold QR induction) in test [1] (cell viability >50%) is 4.8 µg/mL; in test [1] (setting [4]) it was 25 µM. The IC50 in test [2] (cell viability ≧80%) was found to be 21 µg/mL; in test [2] (setting [4]), 110 µM. Also, in the test on RAW 264.7 cells, the “thiol efflux / extracellular thiols, in words” value was “about half as much thiol efflux as the others”.
As to `CCCSSC[C@H](NC(=O)CC[C@H](N)C(=O)O)C(=O)NCC(=O)O` [GSSP, S-propyl-L-mercaptoglutathione], the EC (2-fold QR induction) is 73 µg/mL in test [1] (cell viability >50%) and 190 µM in test [1] (setting [4]). In addition, the inhibition at 125 µg/mL in test [2] was 34%. In addition, in test [3], the “elevation of intracellular GSH over control” value is given as 50-70%.

A word on the IC50: it is the point on the concentration scale where inhibition reaches its midpoint. A word on the inhibition: it is the share of the control response that was lost under treatment. Low values mean a response near the control, high ones a response far below the control.
